# Results published in patent US9695155B2, “Herbicidal substituted pyrimidinyloxy benzene compounds” (E. I. DU PONT DE NEMOURS AND COMPANY, priority 2013, dated 2017).
# Tests used:
# Heteranthera limosa = experiment: Test B flooded paddy test; type: in vivo; conditions: Flood, 250 g ai/ha; 0 to 100 scale where 0 is no effect and 100 is complete control
# In short: (§1)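 Visual ratings on a 0 to 100 scale, where 100 means complete control, compared treated plants with controls after 13 to 15 days in a greenhouse. Treatment went into paddy water 3 cm deep over the soil, applied to plants at the 2-leaf stage.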
# yellow nutsedge = experiment: Test C postemergence; type: in vivo, Cyperus esculentus; conditions: for Plant response rating, Nutsedge, Yellow: Postemergence
# In short: (§2)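 Greenhouse herbicide screen. Pre: seeded loam/sand, sprayed at planting. Post: 1–4 leaf plants (2–18 cm) in peat-based mix. Formulation: solvent mixture + surfactant, non-phytotoxic. Readout: visual % control vs untreated, 13–15 d; dash = not tested.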
# corn [1] = experiment: Test A preemergence; type: in vivo, Zea mays; conditions: for Corn plant response rating: 500 g ai/ha
# In short: (§3)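 Visual injury scored 0–100 (100 = complete control) against untreated controls about 10 days after treatment in a greenhouse. Test chemicals, formulated with surfactant in non-phytotoxic solvent, were sprayed on soil preemergence or on 2-10 cm, one- to two-leaf plants postemergence.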
# wheat, winter = experiment: Test C postemergence; type: in vivo, Triticum aestivum
# In short: as §2
# ragweed = experiment: Test C postemergence; type: in vivo, Ambrosia elatior
# In short: as §2
# barnyardgrass [2] = experiment: Test B flooded paddy test; type: in vivo, Echinochloa crus-galli; conditions: Flood, 250 g ai/ha; 0 to 100 scale where 0 is no effect and 100 is complete control
# In short: as §1
# rice = experiment: Test B flooded paddy test; type: in vivo, Oryza sativa; conditions: Flood, 250 g ai/ha; 0 to 100 scale where 0 is no effect and 100 is complete control
# In short: as §1
# soybean = experiment: Test C postemergence; type: in vivo, Glycine max
# In short: as §2
# morningglory [3] = experiment: Test A preemergence; type: in vivo, Ipomoea spp.; conditions: for Morningglory plant response rating: 500 g ai/ha
# In short: as §3
# large (Lg) crabgrass = experiment: Test A preemergence; type: in vivo, Digitaria sanguinalis; conditions: for Crabgrass, Large plant response rating: 500 g ai/ha
# In short: as §3
# wheat = experiment: Test A postemergence; type: in vivo, Triticum aestivum
# In short: as §3
# velvetleaf = experiment: Test A preemergence; type: in vivo, Abutilon theophrasti; conditions: for Velvetleaf plant response rating: 500 g ai/ha
# In short: as §3
# giant foxtail = experiment: Test C postemergence; type: in vivo, Setaria faberii
# In short: as §2
# barnyardgrass [4] = experiment: Test A postemergence; type: in vivo, Echinochloa crus-galli
# In short: as §3
# corn [5] = experiment: Test C postemergence; type: in vivo, Zea mays
# In short: as §2
# morningglory [6] = experiment: Test C postemergence; type: in vivo, Ipomoea coccinea
# In short: as §2
# sedge, umbrella = experiment: Test B flooded paddy test; type: in vivo, Cyperus difformis; conditions: Flood, 250 g ai/ha; 0 to 100 scale where 0 is no effect and 100 is complete control
# In short: as §1
# [7] = 62 g ai/ha, scale 0 to 100 (0 no effect, 100 complete control)
# [8] = 125 g ai/ha, 0 to 100 scale where 0 is no effect and 100 is complete control
# [9] = 0 to 100 scale, 0 no effect, 100 complete control, approx. 10 days
# [10] = Postemergence, 31 g ai/ha, scale 0 to 100 (0 no effect, 100 complete control), 13 to 15 days
# [11] = Postemergence, 62 g ai/ha, scale 0 to 100 (0 no effect, 100 complete control)
# [12] = 500 g ai/ha, 0 to 100 scale, 0 no effect, 100 complete control
# [13] = 16 g ai/ha, postemergence, 0 is no effect, 100 is complete control
# [14] = 31 g ai/ha, postemergence, visual rating, scale 0 to 100 (0 no effect, 100 complete control), 13 to 15 days
# [15] = 0 to 100 scale where 0 is no effect and 100 is complete control
# [16] = 125 g ai/ha, postemergence, visual rating, scale 0 to 100 (0 no effect, 100 complete control)
# [17] = 500 g ai/ha, 0 to 100 scale where 0 is no effect and 100 is complete control
smiles,measurement,setting,value
N#Cc1cccc(Oc2ncc(Br)cn2)c1-n1cc(Br)cn1 [Compound 57],"Plant response rating, Ducksalad",Heteranthera limosa,60
same,"Plant response rating (0 to 100), Nutsedge, Yellow","yellow nutsedge; 125 g ai/ha, postemergence",5
same,"Plant response rating (0 to 100), Nutsedge, Yellow","yellow nutsedge; 250 g ai/ha, postemergence",15
same,"Plant response rating, Nutsedge, Yellow","yellow nutsedge; 31 g ai/ha, scale 0 to 100 (0 no effect, 100 complete control), 13 to 15 days",5
same,"Plant response rating, Nutsedge, Yellow",yellow nutsedge; [7],5
same,"Plant response rating, Corn",corn [1]; [8],0
same,Corn plant response rating,corn [1]; [9],70
same,"Plant response rating (0 to 100), Wheat","wheat, winter; 125 g ai/ha, postemergence",10
same,"Plant response rating (0 to 100), Wheat","wheat, winter; 250 g ai/ha, postemergence",15
same,"Plant response rating, Wheat","wheat, winter; [10]",0
same,"Plant response rating, Wheat","wheat, winter; [11]",5
same,"Plant response rating (0 to 100), Ragweed","ragweed; 125 g ai/ha, postemergence",55
same,"Plant response rating (0 to 100), Ragweed","ragweed; 250 g ai/ha, postemergence",65
same,"Plant response rating, Ragweed",ragweed; [10],35
same,"Plant response rating, Ragweed",ragweed; [11],40
same,"Plant response rating, Barnyardgrass",barnyardgrass [2],0
same,"Plant response rating, Rice",rice,0
same,"Plant response rating (0 to 100), Soybean","soybean; 125 g ai/ha, postemergence",95
same,"Plant response rating (0 to 100), Soybean","soybean; 250 g ai/ha, postemergence",100
same,"Plant response rating, Soybean",soybean; [10],65
same,"Plant response rating, Soybean",soybean; [11],85
same,"Plant response rating, Morningglory",morningglory [3]; [8],0
same,Morningglory plant response rating,morningglory [3]; [9],40
same,"Plant response rating, Crabgrass, Large",large (Lg) crabgrass; [8],90
same,"Crabgrass, Large plant response rating",large (Lg) crabgrass; [9],100
same,"Plant response rating, Wheat",wheat; [8],0
same,"Plant response rating, Wheat",wheat; [12],30
same,"Plant response rating, Velvetleaf",velvetleaf; [8],40
same,Velvetleaf plant response rating,velvetleaf; [9],100
same,"Plant response rating (0 to 100), Foxtail, Giant","giant foxtail; 125 g ai/ha, postemergence",15
same,"Plant response rating (0 to 100), Foxtail, Giant","giant foxtail; 250 g ai/ha, postemergence",30
same,"Plant response rating, Foxtail, Giant",giant foxtail; [10],10
same,"Plant response rating, Foxtail, Giant",giant foxtail; [11],10
same,"Plant response rating, Barnyardgrass",barnyardgrass [4]; [8],90
same,"Plant response rating, Barnyardgrass",barnyardgrass [4]; [12],100
same,"Plant response rating (0 to 100), Corn","corn [5]; 125 g ai/ha, postemergence",20
same,"Plant response rating (0 to 100), Corn","corn [5]; 250 g ai/ha, postemergence",20
same,"Plant response rating, Corn",corn [5]; [10],10
same,"Plant response rating, Corn",corn [5]; [11],15
same,"Plant response rating (0 to 100), Morningglory","morningglory [6]; 125 g ai/ha, postemergence",85
same,"Plant response rating (0 to 100), Morningglory","morningglory [6]; 250 g ai/ha, postemergence",95
same,"Plant response rating, Morningglory",morningglory [6]; [10],45
same,"Plant response rating, Morningglory",morningglory [6]; [11],80
same,"Plant response rating, Sedge, Umbrella","sedge, umbrella",80
Clc1cnc(Oc2cccc(Cl)c2-n2cc(I)cn2)nc1 [Compound 181],"Plant response rating, Ducksalad",Heteranthera limosa,75
same,"Plant response rating (0 to 100), Nutsedge, Yellow",yellow nutsedge; [13],0
same,"Nutsedge, Yellow plant response rating",yellow nutsedge; [14],0
same,"Plant response rating, Nutsedge, Yellow",yellow nutsedge; [7],5
same,Corn plant response rating (0 to 100 scale),corn [1]; 125 g ai/ha,0
same,Corn plant response rating,corn [1]; [15],30
same,"Plant response rating (0 to 100), Wheat","wheat, winter; [13]",0
same,Wheat plant response rating,"wheat, winter; [14]",0
same,"Plant response rating, Wheat","wheat, winter; [16]",5
same,"Plant response rating, Wheat","wheat, winter; [11]",0
same,"Plant response rating (0 to 100), Ragweed",ragweed; [13],5
same,Ragweed plant response rating,ragweed; [14],35
same,"Plant response rating, Ragweed",ragweed; [16],45
same,"Plant response rating, Ragweed",ragweed; [11],30
same,"Plant response rating, Barnyardgrass",barnyardgrass [2],0
same,"Plant response rating, Rice",rice,0
same,"Plant response rating (0 to 100), Soybean",soybean; [13],35
same,Soybean plant response rating,soybean; [14],50
same,"Plant response rating, Soybean",soybean; [16],95
same,"Plant response rating, Soybean",soybean; [11],50
same,Morningglory plant response rating (0 to 100 scale),morningglory [3]; 125 g ai/ha,0
same,Morningglory plant response rating,morningglory [3]; [15],30
same,"Crabgrass, Large plant response rating (0 to 100 scale)",large (Lg) crabgrass; 125 g ai/ha,100
same,"Crabgrass, Large plant response rating",large (Lg) crabgrass; [15],100
same,Wheat plant response rating,wheat; [8],0
same,"Plant response rating, Wheat",wheat; [17],30
same,Velvetleaf plant response rating (0 to 100 scale),velvetleaf; 125 g ai/ha,20
same,Velvetleaf plant response rating,velvetleaf; [15],40
same,"Plant response rating (0 to 100), Foxtail, Giant",giant foxtail; [13],10
same,"Foxtail, Giant plant response rating",giant foxtail; [14],10
same,"Plant response rating, Foxtail, Giant",giant foxtail; [16],10
same,"Plant response rating, Foxtail, Giant",giant foxtail; [11],25
same,Barnyardgrass plant response rating,barnyardgrass [4]; [8],60
same,"Plant response rating, Barnyardgrass",barnyardgrass [4]; [17],90
same,"Plant response rating (0 to 100), Corn",corn [5]; [13],5
same,Corn plant response rating,corn [5]; [14],5
same,"Plant response rating, Corn",corn [5]; [16],5
same,"Plant response rating, Corn",corn [5]; [11],5
same,"Plant response rating (0 to 100), Morningglory",morningglory [6]; [13],15
same,Morningglory plant response rating,morningglory [6]; [14],20
same,"Plant response rating, Morningglory",morningglory [6]; [16],98
same,"Plant response rating, Morningglory",morningglory [6]; [11],75
same,"Plant response rating, Sedge, Umbrella","sedge, umbrella",85
